B1: IL4: human recombinant IL4, Th2 cytokine commonly found in atopic dermatitis (protein, UniProt P05112 25-153, looked up)
Interleukin-4: HKCDITLQEIIKTLNSLTEQKTLCTELTVTDIFAASKNTTEKETFCRAATVLRQFYSHHEKDTRCLGATAQQFHRHKQLIRFLKRLDRNLWGLAGLNSCPVKEANQSTLENFLERLKTIMREKYSKCSS

Columns and labels:
[1] = system: intact human epidermis samples; settings: Histamine 100 μM; evaluated at 10, 20 and 30 minutes; epidermis isolated with dispase; FIG. 5
Text: The invention will allow measuring epidermal barrier integrity by evaluating transepithelial electric resistance (TEER), using a planar electrode (for example, Endohm-Snap; World Precision Instruments, Sarasota, Fla., USA), and a paracellular flux assay of for example, fluorescently labeled probes of different radii and sizes. Probes can be added to the upper well, and samples will be collected in the lower well over time to determine the paracellular flux. The amount of fluorescent probes that diffuse across the epidermis sample can be measured using an appropriate fluorometer or spectrophotometer.
The filter 206 of the original detachable ring 204 in the Snapwell™ (Corning, 3407) is replaced by a sandwich system 302 having two Plexiglas (or any other suitable material) inserts 304, with the epidermis/skin sample 306 lying in between them on a filter paper 308 (Nucleopore Track-etched, #110407; 13 mm diameter & pore: 0.4 μm) so that it covers the opening. The skin sample 306 is inserted with epidermis side up. Each of the inserts 304 has a hole 310 formed therein with a diameter of 0.3 cm and an area of 0.0707 cm^2. As in the conventional Snapwell™ system, the sandwich system is 302 is placed between an upper well 312 having a medium 314 and a lower well 316 having a medium 318. A volt-ohm meter 320 is connected between the two media. […]

[2] = system: barrier-disrupted human epidermis; assay: Paracellular flux across tape stripped (barrier-disrupted) human epidermis in the system; type: cell-based; settings: compared with media alone
Method: (§1) The Weck blade is held at a 30-45° angle from the donor skin (e.g. living subject or discarded skins from plastic surgery procedures) surface, while a gentle traction behind the blade is provided by the other hand. Using different depths (e.g. […]), based on the skin sample source (e.g. based on differences in epidermal depth in different anatomical areas as well as species-specific differences), we can effectively isolate intact, full thickness epidermal samples with minimal to no dermis (e.g. subepithelial tissue). The epidermis is removed using that Weck surgical blade, cut into smaller samples to fit the apparatus and placed in a calcium-containing buffer until it is mounted in the device.
(§2) We have also used the invention to test the effect of cytokines relevant to human disease on epidermal barrier function recovery. Human discarded skin was tape stripped to induce a barrier impairment, this barrier-disrupted epidermis was isolated using the Weck blade and placed into the system. Samples were than treated for 24 h with human recombinant IL17A, a prototypic cytokine commonly found within the skin lesions of psoriasis (FIG. 6) or the Th2 cytokines, IL4 and IL13, commonly found in atopic dermatitis (FIG. 7). After 24 h treatment with human recombinant IL17A (50 and 100 ng/ml), TEER was increased, and paracellular flux was reduced as compared with a sample treated with media alone. Those data indicated IL17A enhanced epidermal barrier recovery.

[3] = system: barrier-disrupted human epidermis; assay: TEER of tape stripped (barrier-disrupted) human epidermis in the system; type: cell-based; settings: compared with media alone
Method: as §1, §2

[4] = system: murine skin samples (wild type and STAT6 mice); assay: Skin barrier recovery after in vivo tape stripping, murine skin samples mounted in the system; type: cell-based; settings: Pam3CSK4 10 μM; wild type versus STAT6 mice, n=3 each; normalized to WT vehicle control; FIG. 8
Method: For very thin skin samples isolated from rodents or other small mammalians, curettage along the dermal surface of the biopsy can be performed with a blade to minimize the amount of dermis taken. Alternatively, skin can be incubated in ammonium thiocyanate and epidermis removed from dermis. Murine skin can be isolated from any anatomical area, defatted using a surgical blade, cut into smaller samples to mount in the apparatus.
We have also used the present invention in a murine model. Skin barrier recovery after in vivo tape stripping was evaluated in wild type mice as compared to genetically modified mice that expressed a constitutively activated form of STAT6 under the CD2 locus, that results in the enhanced expression of Th2 cytokines (IL-4 and IL-13). Skin samples were collected from the healthy, nonperturbed skin of the back or from an area of the back that underwent tape stripping. The dermis was removed by scraping with a surgical blade and skin samples were mounted in the system. We observed no differences in recovery between the two mice strains. […] All data are normalized to WT vehicle control group. In FIG. 8, ns: not significant; *P<0.05, **P<0.01, ***P<0.001. (WT, n=3; STAT6VT, n=3).

[5] = IL4 (50 ng/ml) and IL13 (50 ng/ml) given together, FIG. 7
[6] = IL17A 50 and 100 ng/ml, 24 h treatment, FIG. 6

Molecule	paracellular flux [2, 5]	TEER [3, 5]	further results
NCCc1c[nH]cn1 [Histamine]	–	–	paracellular flux of fluorescein [1]: enhanced
IL13: human recombinant IL13, Th2 cytokine commonly found in atopic dermatitis	increased	reduced	–
IL17A: human recombinant IL17A, a prototypic cytokine commonly found within the skin lesions of psoriasis	–	–	paracellular flux [2, 6]: reduced; TEER [3, 6]: increased
Pam3CSK4	–	–	skin barrier recovery [4]: greater recovery in wild type mice
B1	increased	reduced	–
